Measurements as given in patent US8568736B2, “Polypeptide derivatives of parathyroid hormone (PTH)” (The General Hospital Corporation, priority 1999, dated 2013).
pEC50: −log10 of the molar value. Where two headings read alike, the source gives them in different places. No end group written: not given here.

Experiments:
[1] = target: T1, human PTH-1 receptor (endogenous, SAOS-2 cells) (Homo sapiens, UniProt Q03431); test: cAMP response in osteoblastic SAOS-2 cells; format: cell-based
T1 construct: the human osteoblastic cell line, SAOS-2, express endogenous PTH-1 receptors; endogenous in cells; host or cells: SAOS-2 human osteoblastic cells
T1 sequence (Q03431 27-593): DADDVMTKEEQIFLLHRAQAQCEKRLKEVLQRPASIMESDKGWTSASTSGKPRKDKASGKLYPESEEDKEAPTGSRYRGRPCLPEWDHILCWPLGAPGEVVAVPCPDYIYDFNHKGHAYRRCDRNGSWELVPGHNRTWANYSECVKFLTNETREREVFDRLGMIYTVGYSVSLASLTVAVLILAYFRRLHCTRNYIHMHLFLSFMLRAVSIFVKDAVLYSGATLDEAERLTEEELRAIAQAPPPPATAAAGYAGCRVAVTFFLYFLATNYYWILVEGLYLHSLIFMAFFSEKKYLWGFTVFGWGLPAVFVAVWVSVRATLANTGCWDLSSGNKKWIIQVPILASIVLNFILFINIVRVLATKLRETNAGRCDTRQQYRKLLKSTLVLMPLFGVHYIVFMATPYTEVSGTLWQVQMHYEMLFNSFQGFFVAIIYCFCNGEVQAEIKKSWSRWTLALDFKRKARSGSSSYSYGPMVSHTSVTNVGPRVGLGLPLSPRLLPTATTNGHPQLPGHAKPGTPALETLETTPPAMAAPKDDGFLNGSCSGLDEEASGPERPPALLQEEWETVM
Method: The rat osteoblastic cell line ROS 17/2.8 (Majeska, R. J., et al, Endocrinology 107:1494-1503 (1980)) expresses endogenous PTH-1 receptors at levels of 80,000 per cell and the human osteoblastic cell line, SAOS-2, express endogenous PTH-1 receptors at levels of ˜30,000 per cell.
(§1) Stimulation of cells with peptide analogs was performed in 24-well plates. Cells were rinsed with 0.5 mL of binding buffer and treated with 200 μL of cAMP assay buffer (Dulbecco's modified Eagle's medium containing 2 mM 3-isobutyl-1-methylxanthine, 1 mg/mL bovine serum albumin, 35 mM Hepes-NaOH, pH 7.4) and 100 μL of binding buffer containing varying amounts of peptide analog (final volume=300 μL). The medium was removed after incubation for 1 h at room temperature, and the cells were frozen (−80° C.), lysed with 0.5 mL 50 mM HCl, and refrozen (−80° C.). The cAMP content of the diluted lysate was determined by radioimmunoassay. Where possible, cAMP EC50 and Maximum response values were determined using nonlinear regression (see below).
All calculations were performed using Microsoft Excel. Nonlinear regression analysis of cAMP stimulation data was performed using parameters, defined as the Minimum, Maximum, Emax, midpoint (EC50), and slope of the response curve. The predicted response (yp) for a given dose (x) of peptide was calculated using the following equation: yp=Min+[(Max−Min)/(1+(EC50/x)^slope)]. The initial parameter values were estimated from the primary data, and the Excel “Solver function” was then used to vary the four parameters in order to minimize the differences between the predicted and actual responses (least-squares method) (Bowen, W., & Jerman, J., Trends in Pharmacol. Sci. 16:413-417 (1995)). The statistical significance between two data sets was determined using a one-tailed Student's t-test, assuming unequal variances for the two sets.

[2] = target: T2, PTH-1 receptor (Homo sapiens, UniProt Q03431); test: cAMP stimulation in HKRK-B7 cells (LLC-PK1 stably transfected with hPTH-1 receptor); format: cell-based; set-up: expressed in transfected cells; host or cells: LLC-PK1 porcine kidney cells, clone HKRK-B7; conditions: for Emax: Emax constrained to ±1 SD of rPTH(1-34) response at 100 nM; for fold more potent than native PTH(1-14): LLC-PK1 cells stably expressing hPTH-1 receptor
T2 sequence (Q03431 27-593): T1 sequence (Q03431 27-593)
Source text: Stably transfected derivatives of the porcine kidney cell line LLC-PK1, HKRK-B7 (Takasu, H., et al., J. Bone Miner. Res. 14:11-20 (1999)) and hPR2-20, express the human PTH-1 and human PTH-2 receptors respectively. The HKRK-B7 LLC-PK1 cell line expresses the hPTH-1 receptor at ˜1×10^6 receptors/cell (Takasu, H., et al., J. Bone Miner. Res. 14:11-20 (1999)), and the hPR2-22 LLC-PK1 cell line expresses the hPTH-2 receptor at ˜0.8×10^6 receptors/cell (provided by H. Takasu and F. R. Bringhurst, Endocrine Unit, Massachusetts General Hospital).
as §1
Intracellular cAMP accumulation may be measured as described by Abou-Samra et al., J. Biol. Chem. 262:1129, 1986) or other methods known to those of skill in the art. Intracellular cAMP is extracted by thawing the cells in 1 ml of 50 mM HCl and analyzed by a specific radioimmunoassay using an anti-cAMP antibody (e.g., Sigma, St. Louis, Mo.). A cAMP analog (2′-O-monosuccinyl-adenosine 3′:5′-cyclic monophosphate tyrosyl methyl ester, obtained from Sigma) which is used as a tracer for cAMP is iodinated by the chloramine T method. Free iodine is removed by adsorbing the iodinated cAMP analog onto a C18 Sep-pak cartridge (Waters, Milford, Mass.). After washing with dH2O, the iodinated cAMP analog is eluted from the Sep-pak Cartridge with 40% acetonitrille (ACN) and 0.1% trifluoroacetic acid (TFA). The iodinated cAMP analog is lyophilized, reconstituted in 1 ml 0.1% TFA, and injected into a C18 reverse phase HPLC column (Waters). The column is equilibrated with 10% ACN in 0.1% TFA, and eluted with gradient of 10-30% ACN in 0.1% TFA. This allows separation of the mono-iodinated cAMP analog from the non-iodinated cAMP analog. The tracer is stable for up to 4 months when stored at −20° C. The standard used for the assay, adenosine 3′:5′-cyclic monophosphate, is purchased from Sigma. Samples (1-10 µl of HCl extracts) or standards (0.04-100 fmol/tube) are diluted in 50 mM Na-acetate (pH 5.5), and acetylated with 10 μl of mixture of triethylamine and acetic anhydride (2:1 vol:vol). After acetylation, cAMP antiserum (100 μl) is added from a stock solution (1:4000) made in PBS (pH 7.4), 5 mM EDTA and 1% normal rabbit serum. The tracer is diluted in PBS (pH 7.4) with 0.1% BSA, and added (20,000 cpm/tube). The assay is incubated at 4° C. overnight. The bound tracer is precipitated by adding 100 μl of goat anti-rabbit antiserum (1:20 in PBS) and 1 ml of 7% polyethyleneglycol (MW 5000-6000), centrifuging at 2000 rpm for 30 min. at 4° C. The supernatant is removed and the bound radioactivity is counted in a gamma-counter (Micromedic). To compute the cAMP data, logit calculations were performed in Excel spreadsheets. Typically, the assay sensitivity is 0.1 fmol/tube, and the standard concentration that displaces 50% of tracer is 5 fmol/tube.
All calculations were performed using Microsoft Excel. Nonlinear regression analysis of cAMP stimulation data was performed using parameters, defined as the Minimum, Maximum, Emax, midpoint (EC50), and slope of the response curve. The predicted response (yp) for a given dose (x) of peptide was calculated using the following equation: yp=Min+[(Max−Min)/(1+(EC50/x)^slope)]. […]

Row | Compound | Emax ([1]; SAOS-2 cells) | EC50 ([1]; SAOS-2 cells, cAMP, read-out: EC50 (converted)) | cAMP signaling activity (in words) ([2]; HKRK-B7 cells, dose-response) | Emax ([2]; HKRK-B7 cells) | pEC50 [1] | fold more potent than the two controls, rPTH(1-34) and hPTH(1-34) ([2]; HKRK-B7 cells, cAMP) | EC50 Log M ([2]; HKRK-B7 cells (hPTH-1 Receptor), cAMP, mean ± SEM) | EC50 Log M ([1]; SAOS-2 cells, cAMP) | fold more potent than native PTH(1-14) ([2]; cAMP) | fold more potent than native PTH(1-14) ([2]; cAMP, listed as [A^3, A^10, R^11, A^12]rPTH(1-14)amide)
1 | AVAEIQLMHAR-NH2 [compound 6, AlaValAlaGluIleGlnLeuMetHisAlaArg-amide] | 235 ± 7 picomole/well | 75900 nM | signaling activity was readily observed | 248 ± 13 picomole/well | – | – | – | – | – | –
2 | AVAEIQLMHARAKHLNSMERVEWLRKKLQDVHNY-NH2 [Peptide #7] | 272 ± 33 picomole/well | – | – | 244 picomole/well | 9.95 | about 2 fold | – | – | – | –
3 | CCCC[C@H](NC(=O)[C@H](CCCNC(=N)N)NC(=O)[C@H](CCC(=O)O)NC(=O)[C@@H](NC(=O)[C@H](CO)NC(=O)[C@H](C)NC(=O)[C@H](CC(C)C)NC(=O)[C@H](Cc1c[nH]cn1)NC(=O)[C@H](CCCCN)NC(=O)CNC(=O)[C@H](CC(C)C)NC(=O)[C@H](CC(N)=O)NC(=O)[C@H](Cc1c[nH]cn1)NC(=O)[C@H](CCCC)NC(=O)[C@H](CC(C)C)NC(=O)[C@H](CCC(N)=O)NC(=O)[C@@H](NC(=O)[C@H](CCC(=O)O)NC(=O)[C@H](CO)NC(=O)[C@@H](NC(=O)[C@H](C)N)C(C)C)[C@@H](C)CC)C(C)C)C(=O)N[C@@H](CCC(N)=O)C(=O)N[C@@H](Cc1c[nH]c2ccccc12)C(=O)N[C@@H](CC(C)C)C(=O)N[C@@H](CCCNC(=N)N)C(=O)N[C@@H](CCCCN)C(=O)N[C@@H](CCCCN)C(=O)N[C@@H](CC(C)C)C(=O)N[C@@H](CCC(N)=O)C(=O)N[C@@H](CC(=O)O)C(=O)N[C@H](C(=O)N[C@@H](Cc1c[nH]cn1)C(=O)N[C@@H](CC(N)=O)C(=O)N[C@@H](Cc1ccc(O)cc1)C(N)=O)C(C)C [[Nle8, 21, Y34]rPTH(1-34), [Nle^8,21,Tyr^34]-rPTH(1-34)NH2, reference compound] | 272 ± 33 picomole/well | – | – | 293 ± 29 picomole/well | 9.75 | – | −8.6 ± 0.1 Log M | – | – | –
4 | AVSEIQLMHNLGKH-NH2 [native rPTH(1-14), AVSEIQLMHNLGKH, reference compound] | – | – | – | 299 ± 27 picomole/well | – | – | – | barely active | – | –
5 | AVAEIQLMHARAKH-NH2 [Peptide #1, AlaValAlaGluIleGlnLeuMetHisAlaArgAlaLysHis-amide] | 331 picomole/well | – | – | 264 ± 16 picomole/well | – | – | – | – | 160 fold | 100 fold
